Series [1] deals with rice (ORYSA). Put plainly: Test 32 greenhouse, simulated flooded rice culture. It counts as in vivo, Oryza sativa. The note with it: postemergence to flood, 21 DAA. As for the experimental part:
A greenhouse trial was conducted to evaluate the effects of Compound 1 and isoxadifen-ethyl at different ratios in simulated flooded rice culture. Plastic pots (11-cm diameter) were partially filled with non-sterilized Tama silt loam soil containing a 15:57:28 ratio of sand, silt and clay and 2.9% organic matter. Seeds of Heteranthera limosa (ducksalad; HETLI), Cyperus difformis (smallflower umbrella sedge; CYPDI), one stand of Echinochloa crus-galli (barnyardgrass; ECHCG), and one stand of four rice seedlings (Oryza sativa cv. ‘M202’; ORYSA) were planted into a single 11-cm diameter pot for each rate and mixture of rates. To obtain this planting, C. difformis and H. limosa seeds were planted separately on the surface soil layer at particular locations within each pot. Water levels were brought to a puddled condition above the soil surface directly after planting. E. crus-galli and rice seeds were planted in cavity trays in the silt loam soil and transplanted at the 1.5 and 2.0 leaf stage, respectively. E. crus-galli and rice plants were transplanted to about 2-cm depth by transferring plugs from the cavity trays. Plantings were sequential so that these plant species all reached the 2.0- to 2.5-leaf stage in the 11-cm diameter pot at time of treatment. Plantings were established and maintained in a greenhouse with day and night temperatures of about 29.5 and 26.7° C. respectively; supplemental balanced lighting was provided to maintain a 16-hour photoperiod. Pots were fertilized periodically with a 200 ppm solution of commercial Scotts Peters® Professional® General Purpose 20-20-20 Water Soluble Fertilizer, amended to 10 ppm with a commercial iron-chelate micronutrient fertilizer. The solution was supplied at time of watering via a liquid fertilizer injector.
At treatment time, test pots were flooded to 3 cm above the soil surface and maintained at that water depth for the duration of the test. Chemical treatments were formulated in acetone and applied directly to the paddy water (i.e., postemergence to flood). Make-up volumes of acetone were added to ensure that all pots were treated with a consistent volume. Test pots were maintained in the greenhouse. A randomized complete block design was employed. Five replicates of each treatment, alone and in mixture, were used. Each species was visually evaluated for treatment effects by comparing those treated to untreated controls and rated for plant response after 21 days.

Series [2] deals with winter wheat (TRZAW). Put plainly: Test 27 field trial, postemergence. It counts as in vivo, Triticum aestivum. On the set-up: scale not given here. An excerpt: Wheat seeds (cv. ‘Custer’) were planted in late fall season in a clay loam soil. Plots were 9 m long by 1.8 m wide. The field was managed using conventional tillage practices. […] All treatments also included a surfactant. […] Results are the means of the three replicates.

Series [3] concerns common ragweed (AMBEL). Description: Test 26 field trial, postemergence. It counts as in vivo, Ambrosia artemisiifolia. On the set-up: scale not given here. An excerpt: (§1) Corn seeds (hybrid ‘Pioneer 31G96’) were planted in mid spring season, 3.8 cm deep in a silt loam soil having 2% organic matter and a pH of 6.6. Plots were 6.1 m long by 3.0 m wide with rows spaced 76 cm apart. Seeds were spaced 15 cm apart within the rows. The field was managed using conventional tillage practices. […] All treatments also included a surfactant. […] Some of the weed species could not be evaluated at every timing. […] Results are the means of the three replicates.

The subject of series [4] is jimsonweed (DATST). Description: Test 26 field trial, postemergence. The format is in vivo, Datura stramonium. Conditions: 28 DAA.
Description: as §1

The test system of series [5] is Pennsylvania smartweed (POLPY). Description: Test 26 field trial, postemergence. The format is in vivo, Polygonum pensylvanicum.
Description: as §1

Series [6] has as its system kochia (KCHSC). Description: Test 4 field trial, postemergence. The format is in vivo, Kochia scoparia. As for the experimental part: A field trial was conducted to evaluate the effects of mixtures of Compound 2 with commercial herbicides on spring wheat (TRZAS, Triticum aestivum L.) and several weed species. Wheat seeds (cv. ‘AC Intrepid’) were planted in late spring season, 3.8 cm deep in a loam soil having 2.7% organic matter and a pH of 7. Plots were 6 m long by 2.5 m wide. The field was managed using no-till practices. The plots were arranged in a randomized complete block design with each treatment being replicated four times. Treatments were applied postemergence 25 days after planting using a backpack sprayer delivering a spray volume of 55 L/ha using a pressure of 276 kPa. […] Compound 2 and clodinafop treatments, alone and in combination, also included a surfactant. Weed species present in the experimental plots in sufficient quantity to be evaluated included wild oat (AVEFA, Avena fatua L.), common lambsquarters (CHEAL, Chenopodium album L.), kochia (KCHSC, Kochia scoparia (L.) Schrad.), wild buckwheat (POLCO, Polygonum convolvulus L.), Russian thistle (SASKR, Salsola kali L. ssp. ruthenica (Iljin) Soo), and field pennycress (THLAR, Thlaspi arvense L.). […] Common lambsquarters was evaluated only at 14 days after application. […] Results are the means of the four replicates.

For series [7], the system named is flint corn (ZEAMI). Description: Test 11 field trial, preemergence. Conditions: atrazine 1500 or metolachlor 2500 g a.i./ha alone. It counts as in vivo, Zea mays L. ssp. indurata. Details: scale not given here. An excerpt:
Corn seeds (hybrid ‘Pioneer 3041’) were planted in mid spring season, 5 cm deep in a clay soil having 2.6% organic matter and a pH of 5.6. Plots were 8 m long by 1.5 m wide with rows spaced 80 cm apart. Seeds were spaced 15 cm apart within the rows. The field was managed using conventional tillage practices. […] Treatments consisted of Compound 2 or
Goosegrass was not evaluated 16 or 91 days after application.

Molecules are shown by their SMILES.

Turning to `Nc1nc(C2CC2)nc(C(=O)O)c1Cl` [Compound 1, 6-amino-5-chloro-2-cyclopropyl-4-pyrimidinecarboxylic acid], the ORYSA Obs is 9% in series [1] (Cpd 1 31.25 g a.i./ha), 15% in series [1] (Cpd 1 62.5 g a.i./ha) and 27% in series [1] (Cpd 1 125 g a.i./ha).
In the case of `COC(=O)c1nc(C2CC2)nc(N)c1Cl` [Compound 2, methyl 6-amino-5-chloro-2-cyclopropyl-4-pyrimidinecarboxylate], the “TRZAW Obs” value in series [2] (16 DAA, 15 g a.i./ha) is recorded as 2; in series [2] (16 DAA, 30 g a.i./ha) it was 10; in series [2] (16 DAA, 45 g a.i./ha), 17; in series [2] (28 DAA, 15 g a.i./ha) it was 0; in series [2] (28 DAA, 30 g a.i./ha), 12; in series [2] (28 DAA, 45 g a.i./ha), 25. Moreover, the “TRZAW Obs” value in series [2] (49 DAA, 15 g a.i./ha) came out at 3; in series [2] (49 DAA, 30 g a.i./ha), 17; in series [2] (49 DAA, 45 g a.i./ha), 35. Further, the “AMBEL Obs” value in series [3] (14 DAA, 30 g a.i./ha) stood at 94; in series [3] (14 DAA, 45 g a.i./ha), 67; in series [3] (14 DAA, 60 g a.i./ha) it was 98; in series [3] (28 DAA, 30 g a.i./ha), 88; in series [3] (28 DAA, 45 g a.i./ha), 95; in series [3] (28 DAA, 60 g a.i./ha), 98. Moreover, the “AMBEL Obs” value in series [3] (56 DAA, 30 g a.i./ha) came out at 73; in series [3] (56 DAA, 45 g a.i./ha), 95; in series [3] (56 DAA, 60 g a.i./ha), 95. Moreover, the “DATST Obs” value in series [4] (30 g a.i./ha), in series [4] (45 g a.i./ha) and in series [4] (60 g a.i./ha) was 100 in each case. The “POLPY Obs” value was found to be 100 in series [5] (14 DAA, 60 g a.i./ha); 20 in series [5] (28 DAA, 30 g a.i./ha); 62 in series [5] (28 DAA, 45 g a.i./ha); 75 in series [5] (28 DAA, 60 g a.i./ha). Also, the “KCHSC Obs” value in series [6] (14 DAA, Cpd 2 30 g a.i./ha alone or with clodinafop 56 or fenoxaprop 90) is recorded as 95; in series [6] (35 DAA, Cpd 2 30 g a.i./ha alone or with clodinafop 56 or fenoxaprop 90), 99; in series [6] (35 DAA, Cpd 2 60 g a.i./ha alone), 96.
`CCNc1nc(Cl)nc(NC(C)C)n1` [Atrazine, atrazine, reference compound]: the “ZEAMI Obs” value in series [7] (16 DAA), in series [7] (30 DAA), in series [7] (44 DAA), in series [7] (62 DAA) and in series [7] (91 DAA) was 0 in each case.

Values taken from patent US20100285959A1, “HERBICIDAL MIXTURES” (priority 2006, published 2010).
